# Experimental data reported in publication PMC12305494, “Discovery of PXR Antagonist MI891 and PXR Degrader MI1013 and Their Roles in Hepatic Gene Regulation” (Journal of Medicinal Chemistry, 2025).
# “And” between values parts separate entries of the source, which are not always exact repeats. Identical values can stand only once.
# Columns and labels:
# [1] = biological target: T1, eGFP-tagged PXR (Homo sapiens, UniProt O75469+Q96SW2); assay: Fluorescence (eGFP) intensity assay in COS-1 cells; type: cell-based; settings: 24 h
# T1 construct: host or cells: COS-1
# T1 sequence (Q96SW2 whole entry, one chain of several): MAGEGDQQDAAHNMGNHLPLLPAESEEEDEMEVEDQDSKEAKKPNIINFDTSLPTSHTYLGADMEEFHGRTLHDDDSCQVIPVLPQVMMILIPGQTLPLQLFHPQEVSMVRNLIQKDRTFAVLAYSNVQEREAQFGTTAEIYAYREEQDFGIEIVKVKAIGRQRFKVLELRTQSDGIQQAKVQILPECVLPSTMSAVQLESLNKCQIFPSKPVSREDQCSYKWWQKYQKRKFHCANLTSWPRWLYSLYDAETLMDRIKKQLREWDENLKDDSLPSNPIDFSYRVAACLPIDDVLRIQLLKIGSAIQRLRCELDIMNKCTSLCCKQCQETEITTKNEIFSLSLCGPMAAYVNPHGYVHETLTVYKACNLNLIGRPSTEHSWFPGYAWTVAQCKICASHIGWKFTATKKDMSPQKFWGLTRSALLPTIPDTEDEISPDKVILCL
# Method: COS-1 cells were transfected with 150 ng of PXR-eGFP (NR1I2_pcDNA3.1(+)-N-eGFP, GenScript Biotech) and 150 ng of CRBN (GenScript - CRBN_OHu21180D_pcDNA3.1+/C-(K)-DYK) in a 48-well plate using Lipofectamine 3000, following the manufacturer’s protocol. After 24 h, the transfected cells were treated with varying concentrations of the MI1013 compound and incubated for another 24 h. The eGFP fluorescence was then checked and imaged using the Invitrogen EVOS imaging system. Fluorescence intensity was measured using the Spark Multimode Microplate Reader (V2.2) in Fluorescence Intensity Scan Top Reading mode. The excitation wavelength was set between 440 and 500 nm, and the emission wavelength was set at 545 nm (Monochromator), with a gain of 100 and an integration time of 40 μs. Graphs were generated using GraphPad Prism.
# [2] = biological target: T2, PXR (Homo sapiens, UniProt O75469); assay: PXR-responsive CYP3A4 promoter luciferase reporter assay in HepG2, agonist mode; type: cell-based; design: expressed in transfected cells; host or cells: HepG2; settings: HepG2, at concentrations up to 10 μM
# T2 sequence (O75469 1-434): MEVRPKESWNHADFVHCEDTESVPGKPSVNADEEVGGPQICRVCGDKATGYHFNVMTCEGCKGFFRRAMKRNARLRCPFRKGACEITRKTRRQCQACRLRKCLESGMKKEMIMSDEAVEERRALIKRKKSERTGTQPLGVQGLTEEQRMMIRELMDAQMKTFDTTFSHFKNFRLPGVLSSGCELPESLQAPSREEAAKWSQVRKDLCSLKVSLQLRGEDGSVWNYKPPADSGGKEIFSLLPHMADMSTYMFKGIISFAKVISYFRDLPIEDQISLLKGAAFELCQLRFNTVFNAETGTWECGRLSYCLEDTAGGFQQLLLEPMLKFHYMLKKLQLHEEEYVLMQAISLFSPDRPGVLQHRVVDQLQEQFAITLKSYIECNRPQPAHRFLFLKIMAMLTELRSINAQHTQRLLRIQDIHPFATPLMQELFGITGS
# Method: Rhesus monkey, mouse, and rat PXR expression vectors (100 ng/well each) were also obtained from GenScript. […] Carlberg (University of Kuopio, Kuopio, Finland).
# (§1) The cells were cultured in DMEM medium (Merck) supplemented with 10% fetal bovine serum.
# [3] = biological target: T2, PXR; settings: HepG2, rifampicin 1 or 5 μM
# Method: (§2) The PXR activity was assessed as the PXR-dependent transcriptional activation using the construct. […] The control vector pRL-TK (Promega) constitutively expresses Renilla luciferase. […] Transient transfection experiments followed published protocols used in our laboratory and described before. , Luciferase reporter assays were conducted to evaluate interactions with PXR or CAR and their variants in HepG2, or COS-1. Cells were seeded at a density of 40,000 cells/cm^2 in 48-well plates (ThermoFisher Scientific) and maintained at 37 °C in a humidified atmosphere with 5% CO2. […] Following seeding, HepG2 cells were transfected with 150 ng/well of a luciferase reporter construct and 100 ng/well of a nuclear receptor expression vector using Lipofectamine 3000 (ThermoFisher Scientific) and with pRL-TK (30 ng/well) serving as the normalization control. After 24 h, cells were treated with test compounds for 24 h before cell lysis and subsequent firefly and Renilla luciferase activity analysis using the Dual-Glo Luciferase Assay System (Promega). […] The activities of test compounds were normalized to the respective controls to determine % activation or inhibition.
# [4] = tested on: ERα/β; assay: ERα/β agonist reporter assay; type: cell-based; settings: 10 µM MI891
# Method: For the farnesoid X receptor (FXR) luciferase gene reporter assay, the full-length expression vector was paired with pFXRE-luc luciferase construct. The p1A1-luc construct was used in the aryl hydrocarbon receptor (AhR) assays with pRL-TK for normalization. Gal4-LXR-α/β, and Gal4-PPAR-γ constructs were used with the pGAL4 UAS-luc construct. For the VDR assay, expression vector pSG5-hVDR together with pVDRE-luc constructs was used. Firefly and Renilla luciferase activities were analyzed using a Dual reporter assay (Promega). For the nuclear receptor assays, prototype ligands were used at the following concentrations: Calcitriol for VDR (100 nM), GW3965 for LXRα and LXRβ (10 μM), 6-OCA for FXR (1 μM), fenofibrate for PPARα (10 μM), estradiol for ERα and β (10 μM), rosiglitazone for PPARγ (10 μM), 3-MC for AhR (5 μM), and TCPOBOP for mCAR (10 μM). Detailed descriptions and protocols are detailed in our recent publication. , […]
# hydrophobic interactions. (F) Superimposed diagram of PXR bound with agonist (SJPYT-328) and antagonists (MI891 and SJPYT-331) to differentiate the agonist and antagonist interactions with helix 12 (H12). The interaction of the agonist with PXR residue (L428) is circled. (G) Extended nuclear receptor selectivity profile. […]
# [5] = tested on: rodent PXRs; assay: Rodent PXR orthologue luciferase reporter assays; type: cell-based, rat/mouse; settings: PCN as prototypical inducer
# Method: The CYP3A4 gene promoter luciferase reporter construct (p3A4-luc) bears a distal XREM (−7836/–7208) and a proximal promoter sequence (prPXRE, −362/+53) from the CYP3A4 gene promoter region. […] The human PXR expression vector (variant 1, NM_003889.3) as well as vectors for mouse, rat, and monkey orthologues were described in our recent paper (39). […] Rhesus monkey, mouse, and rat PXR expression vectors (100 ng/well each) were also obtained from GenScript. […] Carlberg (University of Kuopio, Kuopio, Finland).
# as §1
# [6] = biological target: T2, PXR; assay: cell-based
# Method: as §2
PXR agonistic activity [2],activity on rodent PXRs [5],"IC50 ([6]; IC50, antagonistic activity for rifampicin (1 μM)-activated PXR, rifampicin 1 μM, HepG2) [µM]","IC50 ([6]; IC50, antagonistic mode, MI891 + Rif-5 μM, rifampicin 5 μM, HepG2) [µM]","IC50 ([6]; PXR antagonism: PXR inhibition (IC50, μM), antagonist mode with 10 μM rifampicin, mean ± SD, n = 3)",Compound,degradation of eGFP-tagged PXR (loss of fluorescence) [1],inhibition of PXR activation by rifampicin [3],agonistic effect on ERα/β [4]
did not exhibit agonistic activity,,,,,"N-(4-((1-(2,5-dimethoxyphenyl)-5-methyl-1H-1,2,3-triazol-4-yl)sulfonyl)phenyl)-3-(2-(2-(2-(4-(((2-(2,6-dioxopiperidin-3-yl)-1,3-dioxoisoindolin-4-yl)amino)methyl)-1H-1,2,3-triazol-1-yl)ethoxy)ethoxy)ethoxy)propenamide [Compound 36]",dose-dependent degradation of eGFP-tagged PXR,concentration-dependent inhibition of PXR activation by rifampicin,
,no activities,0.378,3.5,3.8 µM and 3.76 µM,"NC(=O)c1cc(Cn2cc(-c3c(-c4ccc(Cl)cc4)nc4c(F)cc(F)cn34)nn2)ccc1Cl [Compound 11, 2-Chloro-5-((4-(2-(4-chlorophenyl)-6,8-difluoroimidazo[1,2-a]pyridin-3-yl)-1H-1,2,3-triazol-1-yl)methyl)-benzamide]",,,no agonistic effects
